Data reported in US20010008892A1 (priority 1998, published 2001).

Assays:
HIV = assay: Antiviral activity: inhibition of the cytopathic effect of HIV in MT4 cells; type: cell-based; details: MT4 cells; 50% inhibition of the cytopathic effect of HIV; read-out: EC50
From the text: (§1) The IC50 is the concentration of compound that gives 50% inhibition of the cytopathic effect of HIV. The LC50 is the concentration of compound at which 50% of the cells remain viable.

MT4 cells = assay: Cytotoxicity in MT4 cells (LC50, 50% of the cells remain viable); type: cell-based; details: MT4 cells; concentration at which 50% of the cells remain viable
From the text: as §1

HIV-1 protease = HIV-1 protease (Human immunodeficiency virus type 1 group M subtype B, UniProt P04585); assay: Fluorogenic assay for screening inhibitors of HIV protease; details: compound concentration 0.5 nM; fluorogenic substrate 1.3 μM, pH 4.5, 30° C.
Description: A compound of the invention is dissolved in DMSO. A small aliquot is diluted with DMSO to 100 times the final concentration desired for testing. The test is carried out in a 6×50 mm tube in a total volume of 300 microliters. The final concentrations of the components in the reaction buffer are: 125 mM sodium acetate, 1 M sodium chloride, 5 mM dithiothreitol, 0.5 mg/ml bovine serum albumin, 1.3 μM fluorogenic substrate, 2% (v/v) dimethylsulfoxide, pH 4.5. After addition of inhibitor, the reaction mixture is placed in the fluorometer cell holder and incubated at 30° C. for several minutes. The reaction is initiated by the addition of a small aliquot of cold HIV protease. The fluorescence intensity (excitation 340 nm, emmision 490 nM) is recorded as a function of time. The reaction rate is determined for the first six to eight minutes. The observed rate is directly proportional to the moles of substrate cleaved per unit time. The percent inhibition is 100×(1- (rate in presence of inhibitor)/(rate in absence of inhibitor)).
The test compounds were then tested at a concentration of 0.5 nM.

Compound	EC50 (HIV) [nM]	CC50 (MT4 cells) [nM]	% Inhib. (0.5 nM) (HIV-1 protease) [%]
CC(C)c1nc(COC(=O)N[C@H](C(=O)N[C@@H](Cc2ccccc2)[C@H](O)CN2CCN(Cc3ccncc3)C[C@H]2C(=O)NC(C)(C)C)C(C)C)cs1 [Example 7, 2-(1-Methylethyl)-4-thiazolylmethyl-[(1S)-1-[[[(1S,2R)-3-[(2S)-2-[[(1,1-dimethylethyl)amino]carbonyl]-4-(4-pyridinylmethyl)-1-piperazinyl]-2-hydroxy-1-(phenylmethyl)propyl]amino]carbonyl]-2-methylpropyl]carbamate]	17	55200	73
CC(C)c1ncc(COC(=O)N[C@H](C(=O)N[C@@H](Cc2ccccc2)[C@H](O)CN2C[C@H]3CCCC[C@H]3C[C@H]2C(=O)NC(C)(C)C)C(C)C)s1 [Example 30, 2-(1-Methylethyl)-5-thiazolylmethyl-[(1S)-1-[[[(1S,2R)-3-[(3S)-3-[[(1,1-dimethylethyl)amino]carbonyl](4aα,8aα)octahydro-2-isoquinolinyl]-2-hydroxy-1-(phenylmethyl)propyl]amino]carbonyl]-2-methylpropyl]carbamate]	20	17900	55
COc1ccc(CN2CCN(C[C@@H](O)[C@H](Cc3ccccc3)NC(=O)[C@@H](NC(=O)OCc3cnc(C)s3)C(C)C)[C@H](C(=O)NC(C)(C)C)C2)cc1OC [Example 21, 2-Methyl-5-thiazolylmethyl-[(1S)-1-[[[(1S,2R)-3-[(2S)-4-[(3,4-dimethoxylphenyl)methyl]-2-[[(1,1-dimethylethyl)amino]carbonyl]-1-piperazinyl]-2-hydroxy-1-(phenylmethyl)propyl]amino]carbonyl]-2-methylpropyl]carbamate]	11	53000	44
CC(C)c1nc(COC(=O)N[C@H](C(=O)N[C@@H](Cc2ccccc2)[C@H](O)CN2CCN(Cc3ccc(O)cc3)C[C@H]2C(=O)NC(C)(C)C)C(C)C)cs1 [Example 8, 2-(1-Methylethyl)-4-thiazolylmethyl-[(1S)-1-[[[(1S,2R)-3-[(2S)-2-[[(1,1-dimethylethyl)amino]carbonyl]-4-[(4-hydroxyphenyl)methyl]-1-piperazinyl]-2-hydroxy-1-(phenylmethyl)propyl]amino]carbonyl]-2-methylpropyl]carbamate]	47	18900	54
Cc1nc(COC(=O)N[C@H](C(=O)N[C@@H](Cc2ccccc2)[C@H](O)CN2CCN(Cc3ccc(F)cc3)C[C@H]2C(=O)NC(C)(C)C)C(C)C)cs1 [Example 17, 2-Methyl-4-thiazolylmethyl-[(1S)-1-[[[(1S,2R)-3-[(2S)-2-[[(1,1-dimethylethyl)amino]carbonyl]-4-[(4-fluorophenyl)methyl]-1-piperazinyl]-2-hydroxy-1-(phenylmethyl)propyl]amino]carbonyl]-2-methylpropyl]carbamate]	11	39200	50
CC(C)c1nc(COC(=O)N[C@H](C(=O)N[C@@H](Cc2ccccc2)[C@H](O)CN2CCN(Cc3nc4ccccc4[nH]3)C[C@H]2C(=O)NC(C)(C)C)C(C)C)cs1 [Example 9]	46	18400	65
CCc1ncc(COC(=O)N[C@H](C(=O)N[C@@H](Cc2ccccc2)[C@H](O)CN2CCN(Cc3ccc(OC)c(OC)c3)C[C@H]2C(=O)NC(C)(C)C)C(C)C)s1 [Example 20]	16	49700	37
2-(1-Methylethyl)-4-thiazolylmethyl-[(1S)-1-[[[(1S,2R)-3-[(2S)-2-[[(1,1-dimethylethyl)amino]carbonyl]-4-(5-thienylmethyl)-1-piperazinyl]-2-hydroxy-1-(phenylmethyl)propyl]amino]carbonyl]-2-methylpropyl]carbamate [Example 4]	12	69000	67
CC(C)c1nc(COC(=O)N[C@H](C(=O)N[C@@H](Cc2ccccc2)[C@H](O)CN2CCN(Cc3ccc4ccccc4n3)C[C@H]2C(=O)NC(C)(C)C)C(C)C)cs1 [Example 10, 2-(1-Methylethyl)-4-thiazolylmethyl-[(1S)-1-[[[(1S,2R)-3-[(2S)-2-[[(1,1-dimethylethyl)amino]carbonyl]-4-(2-quinolinylmethyl)-1-piperazinyl]-2-hydroxy-1-(phenylmethyl)propyl]amino]carbonyl]-2-methylpropyl]carbamate]	14	18200	70
CC(C)c1nc(COC(=O)N[C@H](C(=O)N[C@@H](Cc2ccccc2)[C@H](O)CN2CCN(Cc3ccccc3)C[C@H]2C(=O)NC(C)(C)C)C(C)C)cs1 [Example 2, 2-(1-Methylethyl)-4-thiazolylmethyl-[(1S)-1-[[[(1S,2R)-3-[(2S)-2-[[(1,1-dimethylethyl)amino]carbonyl]-4-(phenylmethyl)-1-piperazinyl]-2-hydroxy-1-(phenylmethyl)propyl]amino]carbonyl]-2-methylpropyl]carbamate]	22	47100	66
CCc1nc(COC(=O)N[C@H](C(=O)N[C@@H](Cc2ccccc2)[C@H](O)CN2CCN(Cc3ccc(OC)c(OC)c3)C[C@H]2C(=O)NC(C)(C)C)C(C)C)cs1 [Example 18]	19	44600	82
CC(C)c1nc(COC(=O)N[C@H](C(=O)N[C@@H](Cc2ccccc2)[C@H](O)CN2CCN(Cc3cccc(O)c3)C[C@H]2C(=O)NC(C)(C)C)C(C)C)cs1 [Example 5, 2-(1-Methylethyl)-4-thiazolylmethyl-[(1S)-1-[[[(1S,2R)-3-[(2S)-2-[[(1,1-dimethylethyl)amino]carbonyl]-4-[4-(3-hydroxyphenyl)methyl]-1-piperazinyl]-2-hydroxy-1-(phenylmethyl)propyl]amino]carbonyl]-2-methylpropyl]carbamate]	40	16700	69
Cc1nc(COC(=O)N[C@H](C(=O)N[C@@H](Cc2ccccc2)[C@H](O)CN2CCN(Cc3ccc4c(c3)OCO4)C[C@H]2C(=O)NC(C)(C)C)C(C)C)cs1 [Example 15, 2-Methyl-4-thiazolylmethyl-[(1S)-1-[[[(1S,2R)-3-[(2S)-4-(1,3-benzodioxol-5-ylmethyl)-2-[[(1,1-dimethylethyl)amino]carbonyl]-1-piperazinyl]-2-hydroxy-1-(phenylmethyl)propyl]amino]carbonyl]-2-methylpropyl]carbamate]	11	53100	45
CC(C)c1nc(COC(=O)N[C@H](C(=O)N[C@@H](Cc2ccccc2)[C@H](O)CN2CCN(Cc3ccc4c(c3)OCO4)C[C@H]2C(=O)NC(C)(C)C)C(C)C)cs1 [Example 1, 2-(1-Methylethyl)-4-thiazolylmethyl-[(1S)-1-[[[(1S,2R)-3-[(2S)-4-(1,3-benzodioxol-5-ylmethyl)-2-[[(1,1-dimethylethyl)amino]carbonyl]-1-piperazinyl]-2-hydroxy-1-(phenylmethyl)propyl]amino]carbonyl]-2-methylpropyl]carbamate]	3	12800	60
CC(C)[C@H](NC(=O)OCc1cncs1)C(=O)N[C@@H](Cc1ccccc1)[C@H](O)CN1CCN(Cc2cncs2)C[C@H]1C(=O)NC(C)(C)C [Example 25]	57	> 100000	45
2-(1-Methylethyl)-4-thiazolylmethyl-[(1S)-1-[[[(1S,2R)-3-[[[(1,1-dimethylethyl)amino]carbonyl](2-methylethyl)propylamino]-2-hydroxy-1-(phenylmethyl)propyl]amino]carbonyl]-2-methylpropyl]carbamate [Example 27]	374	20600	50
CC(C)c1nc(COC(=O)N[C@H](C(=O)N[C@@H](Cc2ccccc2)[C@H](O)CN2CCN(Cc3cccnc3)C[C@H]2C(=O)NC(C)(C)C)C(C)C)cs1 [Example 6, 2-(1-Methylethyl)-4-thiazolylmethyl-[(1S)-1-[[[(1S,2R)-3-[(2S)-2-[[(1,1-dimethylethyl)amino]carbonyl]-4-(3-pyridinylmethyl)-1-piperazinyl]-2-hydroxy-1-(phenylmethyl)propyl]amino]carbonyl]-2-methylpropyl]carbamate]	12	58600	60
5-Thiazolylmethyl-[(1S)-1-[[[(1S,2R)-3-[(2S)-2-[[(1,1-dimethylethyl)amino]carbonyl]-4-(phenylmethyl)-1-piperazinyl]-2-hydroxy-1-(phenylmethyl)propyl]amino]carbonyl]-2-methylpropyl]carbamate [Example 24]	17	55400	40
COc1ccc(CN2CCN(C[C@@H](O)[C@H](Cc3ccccc3)NC(=O)[C@@H](NC(=O)OCc3csc(C(C)C)n3)C(C)C)[C@H](C(=O)NC(C)(C)C)C2)cc1OC [Example 11, 2-(1-Methylethyl)-4-thiazolylmethyl[(1S)-1-[[[(1S,2R)-3-[(2S)-4-[(3,4-dimethoxylphenyl)methyl]-2-[[(1,1-dimethylethyl)amino]carbonyl]-1-piperazinyl]-2-hydroxy-1-(phenylmethyl)propyl]amino]carbonyl]-2-methylpropyl]carbamate]	17	18300	62
